# Data taken from DBAASP.
# How the values were obtained:
# Assay in all cases: ≥ marks a high value that may be exact or a test limit, other limits are often not marked, values filed in µg/mL are converted to µM
# [1] = test system: Candida albicans ATCC 24433
# [2] = test system: Candida parapsilosis ATCC 22019
# Escherichia coli = test system: Escherichia coli
# Staphylococcus aureus = test system: Staphylococcus aureus
# [3] = test system: Trichophyton rubrum ATCC 28189
# [4] = test system: Bacillus subtilis AB91021
# [5] = test system: Bacillus thuringiensis AB92037
# Escherichia coli AB94012 = test system: Escherichia coli AB94012
# [6] = test system: Escherichia coli ATCC 25922
# [7] = test system: Micrococcus luteus AB93113
# [8] = test system: Pseudomonas aeruginosa ATCC 9027
# [9] = test system: Staphylococcus aureus AB208193
# [10] = test system: Staphylococcus aureus ATCC 25923
# [11] = test system: Staphylococcus aureus ATCC 6538
# [12] = test system: Staphylococcus aureus P1374
# [13] = test system: Staphylococcus aureus P1381
# [14] = test system: Staphylococcus aureus P1389
# [15] = test system: Staphylococcus epidermidis AB208187
# [16] = test system: Staphylococcus epidermidis AB208188
# [17] = test system: Escherichia coli DH5alpha
# [18] = test system: Pseudomonas aeruginosa NBRC 13275
# [19] = test system: Staphylococcus aureus NBRC 13276
# [20] = test system: Staphylococcus epidermidis NBRC 12298
# Escherichia coli BL21AI = test system: Escherichia coli BL21AI
# [21] = test system: Micrococcus luteus DSM 1790
# [22] = test system: Bacillus subtilis DSM 347
# [23] = test system: Escherichia coli DSM 1116
# [24] = test system: Franconibacter helveticus DSM 18390
# [25] = test system: Staphylococcus xylosus DSM 20287
# Escherichia coli K-12 = test system: Escherichia coli K-12
# [26] = test system: Pseudomonas aeruginosa PA214
# [27] = test system: Pseudomonas aeruginosa PA330
# [28] = test system: Pseudomonas aeruginosa PA380
# [29] = test system: Pseudomonas aeruginosa PAO1
# Acinetobacter baumannii = test system: Acinetobacter baumannii
# [30] = test system: Bacillus subtilis CMCC 63501
# [31] = test system: Enterococcus faecalis ATCC 29212
# Escherichia coli 078 = test system: Escherichia coli 078
# Escherichia coli K88 = test system: Escherichia coli K88
# Escherichia coli K99 = test system: Escherichia coli K99
# Escherichia coli UB1005 = test system: Escherichia coli UB1005
# [32] = test system: Pseudomonas aeruginosa 25349
# [33] = test system: Salmonella enterica subsp. enterica serovar Pullorum C79-13
# [34] = test system: Salmonella enterica subsp. enterica serovar Typhimurium ATCC 14028
# [35] = test system: Salmonella enterica subsp. enterica serovar Typhimurium C77-31
# [36] = test system: Staphylococcus aureus ATCC 29213
# [37] = test system: Staphylococcus epidermidis ATCC 12228
structure (smiles),measurement,setting,value
CC[C@H](C)[C@H](NC(=O)[C@H](CC(C)C)NC(=O)[C@H](CCC(=O)O)NC(=O)[C@H](CO)NC(=O)[C@H](CCCN=C(N)N)NC(=O)[C@@H](N)CO)C(=O)N[C@H](C(=O)N[C@@H](CCCN=C(N)N)C(=O)N[C@@H](CCC(N)=O)C(=O)N[C@@H](CCCN=C(N)N)C(=O)N[C@@H](CC(C)C)C(=O)N[C@@H](Cc1ccccc1)C(N)=O)C(C)C [SRSELIVRQRLF],MIC,[1],≥ 266 µM
same,MIC,[2],≥ 266 µM
same,MIC,Escherichia coli,> 266 µM
same,MIC,Staphylococcus aureus,> 266 µM
same,MIC,[3],≥ 266 µM
CC[C@H](C)[C@H](NC(=O)[C@H](CCCCN)NC(=O)[C@@H](NC(=O)[C@H](C)NC(=O)[C@H](CC(C)C)NC(=O)[C@H](CCCCN)NC(=O)[C@H](Cc1ccccc1)NC(=O)[C@H](CC(C)C)NC(=O)[C@H](Cc1cnc[nH]1)NC(=O)CNC(=O)[C@H](Cc1ccccc1)NC(=O)[C@@H](N)Cc1ccccc1)[C@@H](C)O)C(=O)N[C@H](C(=O)N1CCC[C@H]1C(=O)N[C@@H](CO)C(=O)N[C@@H](CC(C)C)C(=O)N[C@@H](Cc1ccccc1)C(=O)N[C@@H](CCCN=C(N)N)C(=O)O)[C@@H](C)CC [FFGHLFKLATKIIPSLFR],MIC,[4],2.9 µM
same,MIC,[5],2.9 µM
same,MIC,Escherichia coli AB94012,11.7 µM
same,MIC,[6],5.9 µM
same,MIC,[7],23.4 µM
same,MIC,[8],5.9 µM
same,MIC,[9],2.9 µM
same,MIC,[10],2.9 µM
same,MIC,[11],1.5 µM
same,MIC,[12],2.9 µM
same,MIC,[13],1.5 µM
same,MIC,[14],2.9 µM
same,MIC,[15],2.9 µM
same,MIC,[16],2.9 µM
CC[C@H](C)[C@H](NC(=O)CN)C(=O)NCC(=O)N[C@@H](CCCCN)C(=O)N[C@@H](Cc1ccccc1)C(=O)N[C@@H](CC(C)C)C(=O)N[C@@H](Cc1cnc[nH]1)C(=O)N[C@@H](CO)C(=O)N[C@@H](C)C(=O)N[C@@H](CCCCN)C(=O)N[C@@H](CCCCN)C(=O)N[C@@H](Cc1ccccc1)C(=O)NCC(=O)N[C@@H](CCCCN)C(=O)N[C@@H](C)C(=O)N[C@@H](Cc1ccccc1)C(=O)N[C@H](C(N)=O)C(C)C [GIGKFLHSAKKFGKAFV],MIC,[17],3.12 µM
same,MIC,[18],3.12 µM
same,MIC,[19],≥ 50 µM
same,MIC,[20],12.5 µM
CC[C@H](C)[C@H](NC(=O)[C@H](CCCN=C(N)N)NC(=O)[C@H](CCCN=C(N)N)NC(=O)[C@@H]1CCCN1C(=O)[C@@H]1CCCN1C(=O)[C@H](CCCCN)NC(=O)[C@@H]1CCCN1C(=O)[C@H](CCCN=C(N)N)NC(=O)[C@@H]1CCCN1C(=O)[C@H](CC(C)C)NC(=O)[C@H](Cc1ccc(O)cc1)NC(=O)[C@@H]1CCCN1C(=O)[C@@H]1CCCN1C(=O)[C@H](CCCCN)NC(=O)[C@H](CC(=O)O)NC(=O)[C@@H](N)C(C)C)C(=O)N[C@@H](Cc1ccc(O)cc1)C(=O)N[C@@H](CC(N)=O)C(=O)O [VDKPPYLPRPKPPRRIYN],MIC,Escherichia coli BL21AI,7.07 µM
same,MIC,[21],7.07 µM
CC[C@H](C)[C@H](N)C(=O)N[C@@H](C)C(=O)N[C@@H](CCCCN)C(=O)N[C@H](C(=O)N[C@@H](C)C(=O)NCC(=O)N[C@@H](CCCCN)C(=O)N[C@H](C(=O)N[C@@H](C)C(=O)N[C@@H](CCCCN)C(=O)N[C@H](C(=O)N[C@@H](C)C(=O)NCC(=O)N[C@@H](CCCCN)C(=O)N[C@H](C(=O)N[C@@H](C)C(=O)N[C@@H](CCCCN)C(=O)N[C@H](C(=O)N[C@@H](C)C(=O)NCC(=O)N[C@@H](CCCCN)C(=O)N[C@H](C(=O)N[C@@H](C)C(=O)N[C@@H](CCCCN)C(N)=O)[C@@H](C)CC)[C@@H](C)CC)[C@@H](C)CC)[C@@H](C)CC)[C@@H](C)CC)[C@@H](C)CC [IAKIAGKIAKIAGKIAKIAGKIAK],MIC,[22],0.842 µM
same,MIC,[23],1.68 µM
same,MIC,[24],1.19 µM
same,MIC,[25],0.842 µM
CC(C)C[C@H](NC(=O)[C@H](C)NC(=O)[C@H](CCCCN)NC(=O)[C@H](CCCCN)NC(=O)[C@H](CCCCN)NC(=O)[C@H](CCCCN)NC(=O)[C@@H](N)CCCCN)C(=O)N[C@@H](Cc1ccccc1)C(=O)N[C@@H](CC(C)C)C(=O)N[C@@H](CCCCN)C(=O)N[C@@H](CC(C)C)C(=O)N[C@@H](Cc1c[nH]c2ccccc12)C(=O)N[C@@H](C)C(=O)N[C@@H](C)C(=O)N[C@@H](Cc1ccccc1)C(=O)N[C@@H](CC(C)C)C(=O)N[C@@H](C)C(N)=O [KKKKKALFLKLWAAFLA],MIC,Escherichia coli K-12,3.1 µM
same,MIC,[26],6.3 µM
same,MIC,[27],12.5 µM
same,MIC,[28],≥ 50 µM
same,MIC,[29],12.5 µM
CC[C@H](C)[C@H](NC(=O)[C@H](Cc1c[nH]c2ccccc12)NC(=O)[C@H](CCCCN)NC(=O)[C@H](CC(C)C)NC(=O)[C@@H](NC(=O)[C@H](CCCCN)NC(=O)CNC(=O)[C@@H](NC(=O)[C@H](CCCCN)NC(=O)[C@H](Cc1c[nH]c2ccccc12)NC(=O)[C@H](CC(C)C)NC(=O)[C@@H](N)CCCN=C(N)N)[C@@H](C)CC)C(C)C)C(N)=O [RLWKIGKVLKWI],MIC,Acinetobacter baumannii,2 µM
same,MIC,[30],1 µM
same,MIC,[31],4 µM
same,MIC,Escherichia coli 078,2 µM
same,MIC,[6],2 µM
same,MIC,Escherichia coli K88,1 µM
same,MIC,Escherichia coli K99,2 µM
same,MIC,Escherichia coli UB1005,1 µM
same,MIC,Escherichia coli,2 µM
same,MIC,[32],4 µM
same,MIC,[33],1 µM
same,MIC,[34],2 µM
same,MIC,[35],4 µM
same,MIC,[10],2 µM
same,MIC,[36],4 µM
same,MIC,Staphylococcus aureus,2 µM
same,MIC,[37],4 µM
